Values of other authors in patent US6413717B1, “Methods for indentifying anti-cancer agents” (Corixa Corporation, priority 1998, dated 2002).

What was measured:
mda-7 = details: IFN-β 2000 U and MEZ 10 ng/mL, agents known to modulate gene expression
human melanoma cells = details: IFN-β 2000 U and MEZ 10 ng/mL

Q: For C=C(C)[C@@]12O[C@@]3(c4ccccc4)O[C@@H]1[C@@H]1[C@@H]4O[C@]4(CO)[C@@H](O)[C@]4(O)C(=O)C(C)=C[C@H]4[C@@]1(O3)[C@H](C)[C@H]2OC(=O)/C=C/C=C/c1ccccc1 [mezerein], which mda-7 expression (mda-7) is on record?
A: induce an increase

Q: And the proliferative potential (human melanoma cells)?
A: irreversible loss of proliferative potential

Q: And the terminal differentiation (human melanoma cells)?
A: induction of terminal differentiation
